According to patent publication US9469854B2, “Pharmaceutical composition for treating liver diseases” (Academia Sinica, priority 2014, dated 2016):

Tests used:
[1] = system: miR-21-3p; test: qRT-PCR microRNA assay in primary human hepatocytes; assay type: cell-based; settings: PHHs, 40 μM berberine, 2 h
Procedure: The primary human hepatocytes from Caucasian donors were purchased from Invitrogen and cultured following the manufacturer's instructions. The hepatocytes were thawed and transferred into cryopreserved hepatocytes recovery medium (CM7000, Invitrogen), centrifuging at room temperature, 100×g for 10 min. Then, the hepatocytes were diluted to seeding density with plating medium (CM3000, Invitrogen) and added into collagen I-coated plates (Invitrogen). These plates were incubated at 37° C. for 4-6 hours under 5% CO2 for forming a monolayer. Then, plating medium was replaced by overlay incubation medium (CM4000 and 0.35 mg/mL Geltrex™ Matrix, Invitrogen), and the incubation medium was replaced daily. In the following examples, hepatocytes form 3 to 4 donors were used for experiments. A 50 mM stock solution of berberine chloride (Sigma-Aldrich) was prepared in dimethyl sulfoxide (DMSO). Cells were treated with 40 μM of berberine chloride or 0.08% DMSO as the control. For induction of lipid droplets formation in cultured cells, 200 μM of oleic acid (Sigma-Aldrich) was added into the culture medium for 24 h. Total RNA was extracted using a TRIZOL reagent (Invitrogen) according to the manufacturer's protocol. The total RNA quantity was measured using a NanoDrop ND-1000 spectrophotometer (Nanodrop Technologies). […]

[2] = system: hsa-miR-21-3p; test: miRNA microarray profiling of berberine-treated HepG2 cells; assay type: cell-based, human; settings: HepG2, 40 μM berberine, 2 h and 4 h vs control cells
Procedure: The human HCC HepG2 cell line was cultured in Minimum Essential Medium Eagle (Sigma) supplemented with 10% fetal bovine serum (FBS) (Invitrogen), 2.2 g/L of sodium bicarbonate (Sigma), 0.1 mM of non-essential amino acids (Caisson), 1 mM of sodium pyruvate (Invitrogen), and 10 of ml/L penicillin-streptomycin-amphotericin solution (Biological Industries). Human HEK-293T cells were maintained in high-glucose Dulbecco's modified eagle medium (Invitrogen) supplemented with 10% FBS and 3.7 g/L of sodium bicarbonate (Sigma). Both cell lines were cultured at 37° C. and 5% CO2.
Total RNA was extracted using a TRIZOL reagent (Invitrogen) according to the manufacturer's protocol. The total RNA quantity was measured using a NanoDrop ND-1000 spectrophotometer (Nanodrop Technologies). The total RNA quality and integrity were assayed using an Agilent 2100 bioanalyzer with an RNA 6000 nano kit (Agilent Technologies).
The miRNA profiling was performed using an Agilent human miRNA Microarray R14 V2 containing 866 human miRNAs. […] Microarrays were scanned following the Agilent microarray scanner protocol, and image analysis and quantification were performed using the Agilent Feature Extraction software (Agilent Technologies). […]

[3] = system: HepG2 cells; test: Trypan blue dye exclusion assay (viable cell number); assay type: cell-based, human; settings: HepG2, 50 nM mimic transfection 48 h vs NC mimic
Procedure: FIG. 6A represents the number of viable HepG2 cells transfected with 50 nM of miR-21-3p mimic or negative-control (NC) mimic for 48 h, which is quantified using trypan blue dye exclusion assay. The data are represented as the mean±standard deviation for 3 independent experiments. The asterisk mark “*” indicates a significant difference with P<0.05.
The HepG2 cells were transfected at a density of 5×10^4 cells per well in a 24-well culture plates with either 50 nM of hsa-miR-21-3p (miR-21-3p mimic) or negative-control mimic (NC mimic), or with either 100 nM of hsa-miR-21-3p inhibitor (miR-21-3p inhibitor) or negative-control inhibitor (NC inhibitor) by using the DharmaFECT 4 transfection reagent (Thermo Scientific Dharmacon) according to the manufacturer's instructions. Cells were incubated for 24 h or 48 h with a microRNA mimic or inhibitor prior to RNA purification for gene expression analysis, and were incubated for 72 h for protein expression analysis.

[4] = system: MAT2B 3′ UTR; test: Dual luciferase reporter assay in HepG2 cells; assay type: cell-based, human
Procedure: (§1) Full-length 3′ UTRs of MAT2A and MAT2B were amplified from the genomic DNA of HepG2 cells through PCR.
(§2) The PCR products were then cloned into the pMIR-REPORT Luciferase miRNA Expression Reporter Vector (Invitrogen), and all inserted sequences in the 3′ UTR constructs were checked using the ABI PRISM DNA sequencer.
(§3) The mutagenesis of the target sequences of hsa-miR-21-3p in MAT2A and MAT2B 3′ UTRs was performed using the QuikChange site-directed mutagenesis kit (Agilent) according to the manufacturer's standard protocol.
(§4) All mutated sequences, including Site 1, Site 2 and the double mutation of the MAT2A and the 3′ UTR mutant construct of MAT2B, were checked through DNA sequencing.
(§5) The HEK-293T and HepG2 cells were seeded at a density of 5×10^4 cells per well in a 24-well culture plate the day before transfection. The HEK-293T and HepG2 cells were tri-transfected with (1) any one of the above-mentioned pMIR-REPORT-3′ UTR construction (300 ng), (2) the control Renilla luciferase reporter plasmid pRL-TK from Promega (10 ng), and (3) 50 nM of hsa-miR-21-3p mimic or negative-control mimic by using the Lipofectamine 2000 transfection reagent (Invitrogen) according to the manufacturer's instructions. Luciferase assays were performed after transfection for 48 h by using the Dual Luciferase reporter assay kit (Promega) and the Paradigm detection platform (Beckman) according to the manufacturer's protocol. The firefly luciferase activity was normalized relative to the Renilla luciferase activity.

[5] = system: MAT2A 3′ UTR; test: Dual luciferase reporter assay in HepG2 cells; assay type: cell-based, human
Procedure: as §1, §2, §3, §4, §5

[6] = system: 3′ UTR of ACACA; test: Reporter examination of miR-21-3p and ACACA 3′ UTR (technology similar to Example 6); assay type: cell-based, human; settings: data not shown
Procedure: as §5

[7] = system: MAT2B 3′ UTR; test: Dual luciferase reporter assay in HEK 293T cells; assay type: cell-based, human
Procedure: as §1, §2, §3, §4, §5

[8] = system: MAT2A 3′ UTR; test: Dual luciferase reporter assay in HEK 293T cells; assay type: cell-based, human
Procedure: as §1, §2, §3, §4, §5

[9] = system: HepG2 cells; test: BrdU incorporation cell proliferation assay; assay type: cell-based, human; settings: HepG2, mimic 24 h plus additional 24 h BrdU, vs NC mimic
Procedure: The HepG2 cells were seeded at a density of 1×10^4 cells per well in a 96-well culture plate the day before transfection. After transfection with 50 nM of hsa-miR-21-3p mimic or the negative-control mimic for 24 h, the cultured media were refreshed with complete media containing the BrdU reagent, and incubated for an additional 24 hour for BrdU incorporation. The BrdU incorporation was quantified by using the BrdU cell proliferation colorimetric ELISA kit (abcam) according to the manufacturer's protocol and detected using the MRX II microplate reader (DYNEX).

[10] = system: intracellular malonyl-CoA; test: Measurement of intracellular malonyl-CoA concentration in HepG2 cells; assay type: cell-based, human; settings: HepG2, 72-h mimic transfection
Procedure: After transfection with 50 nM of miR-21-3p mimic or the negative-control mimic for 72 h, the PHH cells and HepG2 cells were trypsinized. The intracellular malonyl-CoA concentration was measured using the malonyl-CoA ELISA Kit (MyBioSource) according to the manufacturer's instructions.

[11] = HepG2, wild-type 3′ UTR, 50 nM mimic, 48 h
[12] = wild-type 3′ UTR, 50 nM mimic, 48 h

| Compound | miR-21-3p expression (qRT-PCR) [1] | hsa-miR-21-3p expression increase (miRNA microarray) [2] [fold] | viable cell numbers [3] | luciferase reporter expression change, mutated MAT2B 3′ UTR ([4]; HepG2, seed match (+399-418) mutated) | luciferase reporter expression decrease, MAT2B 3′ UTR [4, 11] [fold] | luciferase reporter expression decrease, Site 1 mutated MAT2A 3′ UTR ([5]; HepG2, Site 1 (+180-200) mutated) [fold] | luciferase reporter expression decrease, MAT2A 3′ UTR [5, 11] [fold] | luciferase reporter expression change, Site 2 mutated MAT2A 3′ UTR ([5]; Site 2 (+1267-1288) mutated, cells not named in sentence (FIG. 5C: HEK293T and HepG2)) | luciferase reporter expression change, double-mutated MAT2A 3′ UTR ([5]; both Site 1 and Site 2 mutated, cells not named in sentence (FIG. 5C: HEK293T and HepG2)) | suppression of ACACA expression via 3′ UTR [6] | luciferase reporter expression change, mutated MAT2B 3′ UTR ([7]; seed match (+399-418) mutated) | luciferase reporter expression decrease, MAT2B 3′ UTR [7, 12] [fold] | luciferase reporter expression decrease, Site 1 mutated MAT2A 3′ UTR ([8]; Site 1 (+180-200) mutated) [fold] | luciferase reporter expression decrease, MAT2A 3′ UTR [8, 12] [fold] | inhibition of cellular proliferation (BrdU incorporation) [9] [fold] | intracellular malonyl-CoA concentration decrease [10] [fold] |
| --- | --- | --- | --- | --- | --- | --- | --- | --- | --- | --- | --- | --- | --- | --- | --- | --- |
| COc1ccc2cc3[n+](cc2c1OC)CCc1cc2c(cc1-3)OCO2 [berberine] | up-regulation | 4 | – | – | – | – | – | – | – | – | – | – | – | – | – | – |
| hsa-miR-21-3p (CAACACCAGUCGAUGGGCUGU; listed as RNA, chemistry not given here) [miR-21-3p mimic] | – | – | reduced the viable cell numbers | remained unchanged | 1.4 | 1.5 | 1.5 | did not notably change | did not notably change | suppressed the expression of ACACA, but not though its 3′ UTR sequence | remained unchanged | 2.3 | 1.5 | 1.6 | 1.7 | 1.6 |
